Data from patent US6737383B1, “Herbicidal oxadiazolidines” (priority 1999, dated 2004).

How the values were obtained:
cocklebur = assay: Test B pre/postemergence cocklebur; type: in vivo, Xanthium strumarium
In short: (§1)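 Herbicidal effect was estimated by eye on a ten-point control scale after plants spent twelve to sixteen days in a greenhouse following soil or foliar treatment. Foliar sprays targeted plants at one to four leaves; all doses were formulated in a non-phytotoxic solvent with surfactant.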

soybean = assay: Test B pre/postemergence soybean; type: in vivo, Glycine max
In short: as §1

velvetleaf = assay: Test B pre/postemergence velvetleaf; type: in vivo, Abutilon theophrasti
In short: as §1

duck salad = assay: Test B flood test duck salad; type: in vivo, Heteranthera limosa
In short: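 Flood test on plants grown to the 2-leaf stage; treated plants kept in greenhouse twelve to sixteen days, then visually rated against controls on a 0 (no effect) to 10 (complete control) scale.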

[1] = Postemergence, Rate 62 g/ha, scale 0 to 10, 0 is no effect, 10 is complete control
[2] = Postemergence, Rate 125 g/ha, scale of 0 to 10 where 0 is no effect and 10 is complete control
[3] = Preemergence, Rate 62 g/ha, scale of 0 to 10 where 0 is no effect and 10 is complete control
[4] = Preemergence, Rate 125 g/ha, scale of 0 to 10 where 0 is no effect and 10 is complete control
[5] = Preemergence, Rate 250 g/ha, scale 0 to 10 (0 no effect, 10 complete control)
[6] = Preemergence, Rate 500 g/ha, scale of 0 to 10 where 0 is no effect and 10 is complete control
[7] = Rate 500 g/ha, Postemergence, scale 0 to 10, 0 is no effect, 10 is complete control
[8] = Postemergence, Rate 250 g/ha, scale 0 to 10, 0 no effect, 10 complete control
[9] = Preemergence, Rate 62 g/ha, scale 0 to 10, 0 is no effect, 10 is complete control
[10] = Preemergence, Rate 125 g/ha, scale 0 to 10 (0 no effect, 10 complete control)
[11] = Preemergence, Rate 250 g/ha, scale of 0 to 10 where 0 is no effect and 10 is complete control
[12] = Preemergence, Rate 500 g/ha, scale 0 (no effect) to 10 (complete control)
[13] = Rate 125 g/ha, Postemergence, scale 0 to 10, 0 no effect, 10 complete control
[14] = Rate 500 g/ha, Postemergence, scale 0 to 10, 0 no effect, 10 complete control
[15] = Preemergence, Rate 62 g/ha, scale 0 to 10 (0 no effect, 10 complete control)
[16] = Preemergence, Rate 125 g/ha, 0 is no effect, 10 is complete control
[17] = Preemergence, Rate 250 g/ha, scale 0 to 10, 0 is no effect, 10 is complete control
[18] = Preemergence, Rate 500 g/ha, scale 0 to 10 (0 no effect, 10 complete control)
[19] = Rate 62 g/ha, Postemergence, scale of 0 to 10 where 0 is no effect and 10 is complete control
[20] = Rate 250 g/ha, Postemergence, scale 0 to 10, 0 is no effect, 10 is complete control
[21] = Rate 500 g/ha, Postemergence, scale 0 to 10

In the case of `CC(C)N(C(=O)n1oc(=O)n(CC2CCCCO2)c1=O)c1ccc(Cl)cc1` (stereo not shown) [Compound 660], the “Plant response rating, Cocklebur” value (cocklebur; [1]) was 0, the “Cocklebur plant response rating” value (cocklebur; [2]) was 0 and the “Cocklebur plant response rating” value (cocklebur; Postemergence, Rate 250 g/ha, scale of 0 to 10, 0 is no effect, 10 is complete control) was 2. For the same compound, the “Cocklebur plant response rating” value (cocklebur; [3]) was 0, the “Cocklebur plant response rating” value (cocklebur; [4]) was 0 and the “Plant response rating, Cocklebur” value (cocklebur; [5]) was 0. For the same compound, the “Plant response rating, Cocklebur” value (cocklebur; [6]) was 0, the “Cocklebur plant response rating” value (cocklebur; [7]) was 2 and the “Plant response rating, Soybean” value (soybean; [1]) was 2. The “Soybean plant response rating” value (soybean; [2]) was 3, the “Soybean plant response rating” value (soybean; [3]) was 0 and the “Soybean plant response rating” value (soybean; [4]) was 0. The “Plant response rating, Soybean” value (soybean; [5]) was 0, the “Plant response rating, Soybean” value (soybean; [6]) was 0 and the “Soybean plant response rating” value (soybean; [7]) was 6. The “Plant response rating, Velvetleaf” value (velvetleaf; [1]) was 0, the “Velvetleaf plant response rating” value (velvetleaf; [2]) was 2 and the “Velvetleaf plant response rating” value (velvetleaf; [3]) was 0. The “Velvetleaf plant response rating” value (velvetleaf; [4]) was 0, the “Plant response rating, Velvetleaf” value (velvetleaf; [5]) was 0 and the “Plant response rating, Velvetleaf” value (velvetleaf; [6]) was 0. The “Velvetleaf plant response rating” value (velvetleaf; [7]) was 3, the “Plant response rating, Ducksalad (0 to 10 scale, 0 is no effect, 10 is complete control)” value (duck salad; Rate 62 g/ha, flood test species, Pre-emergence, visual evaluation after twelve to sixteen days) was 0 and the “Ducksalad plant response rating (0 to 10 scale, 0 is no effect, 10 is complete control)” value (duck salad; Rate 125 g/ha, under heading Pre-emergence, flood test species, visual evaluation after twelve to sixteen days) was 0. For the same compound, the “Ducksalad plant response rating” value (duck salad; Rate 250 g/ha, Pre-emergence (flood test species), scale 0 to 10, 0 is no effect, 10 is complete control) was 0 and the “Ducksalad plant response rating” value (duck salad; Rate 500 g/ha, Pre-emergence section of Table B, 0 to 10 scale (0 no effect, 10 complete control)) was 0.

`Cc1cccc(Cl)c1-n1c(=O)on(C(=O)N(c2ccc(Cl)cc2)C(C)C)c1=O` [Compound 54] was tested, and the “Cocklebur plant response rating” value (cocklebur; [1]) was 0, the “Cocklebur plant response rating” value (cocklebur; [8]) was 0 and the “Plant response rating, Cocklebur” value (cocklebur; [9]) was 0. The “Plant response rating, Cocklebur” value (cocklebur; [10]) was 0, the “Plant response rating, Cocklebur” value (cocklebur; [11]) was 0 and the “Cocklebur plant response rating” value (cocklebur; [12]) was “— 0 0 0 0”. For the same compound, the “Cocklebur plant response rating” value (cocklebur; [13]) was 0, the “Cocklebur plant response rating” value (cocklebur; [14]) was 2 and the “Soybean plant response rating” value (soybean; [1]) was 0. For the same compound, the “Soybean plant response rating” value (soybean; [8]) was 0, the “Plant response rating, Soybean” value (soybean; [9]) was 0 and the “Plant response rating, Soybean” value (soybean; [10]) was 0. For the same compound, the “Plant response rating, Soybean” value (soybean; [11]) was 0, the “Soybean plant response rating” value (soybean; [12]) was 0 and the “Soybean plant response rating” value (soybean; [13]) was 0. For the same compound, the “Soybean plant response rating” value (soybean; [14]) was 0, the “Velvetleaf plant response rating” value (velvetleaf; [1]) was 0 and the “Velvetleaf plant response rating” value (velvetleaf; [8]) was 0. The “Plant response rating, Velvetleaf” value (velvetleaf; [9]) was 0, the “Plant response rating, Velvetleaf” value (velvetleaf; [10]) was 0 and the “Plant response rating, Velvetleaf” value (velvetleaf; [11]) was 0. For the same compound, the “Velvetleaf plant response rating” value (velvetleaf; [12]) was 0, the “Velvetleaf plant response rating” value (velvetleaf; [13]) was 0 and the “Velvetleaf plant response rating” value (velvetleaf; [14]) was 0. The “Ducksalad plant response rating” value (duck salad; [1]) was 0, the “Ducksalad plant response rating” value (duck salad; Rate 125 g/ha, Postemergence section (flood test species), scale 0 to 10, 0 no effect, 10 complete control) was 0 and the “Ducksalad plant response rating” value (duck salad; Rate 500 g/ha, listed under Postemergence (flood test species), scale 0 to 10, 0 no effect, 10 complete control) was 0. The “Ducksalad plant response rating” value (duck salad; flood test, listed under Postemergence, Rate 250 g/ha, scale 0 to 10, 0 no effect, 10 complete control) was 0.

`CC(C)N(C(=O)n1oc(=O)n(Cc2ccccc2Cl)c1=O)c1ccc(F)cc1` [Compound 140] was tested, and the “Cocklebur plant response rating” value (cocklebur; [2]) was 0, the “Cocklebur plant response rating” value (cocklebur; [15]) was 0 and the “Cocklebur plant response rating (0 to 10 scale)” value (cocklebur; [16]) was 0. For the same compound, the “Cocklebur plant response rating” value (cocklebur; [17]) was 0, the “Cocklebur plant response rating” value (cocklebur; [18]) was 0 and the “Cocklebur plant response rating” value (cocklebur; [19]) was 0. For the same compound, the “Plant response rating, Cocklebur” value (cocklebur; [20]) was 3, the “Cocklebur plant response rating” value (cocklebur; [21]) was 4 and the “Soybean plant response rating” value (soybean; [2]) was 3. The “Soybean plant response rating” value (soybean; [15]) was 0, the “Soybean plant response rating (0 to 10 scale)” value (soybean; [16]) was 0 and the “Soybean plant response rating” value (soybean; [17]) was 0. The “Soybean plant response rating” value (soybean; [18]) was 1, the “Soybean plant response rating” value (soybean; [19]) was 3 and the “Plant response rating, Soybean” value (soybean; [20]) was 3. For the same compound, the “Soybean plant response rating” value (soybean; [21]) was 5, the “Velvetleaf plant response rating” value (velvetleaf; [2]) was 0 and the “Velvetleaf plant response rating” value (velvetleaf; [15]) was 0. For the same compound, the “Velvetleaf plant response rating (0 to 10 scale)” value (velvetleaf; [16]) was 0, the “Velvetleaf plant response rating” value (velvetleaf; [17]) was 0 and the “Velvetleaf plant response rating” value (velvetleaf; [18]) was 0. The “Velvetleaf plant response rating” value (velvetleaf; [19]) was 0, the “Plant response rating, Velvetleaf” value (velvetleaf; [20]) was 0 and the “Velvetleaf plant response rating” value (velvetleaf; [21]) was 2. The “Ducksalad plant response rating” value (duck salad; Postemergence (flood test species), Rate 125 g/ha, scale of 0 to 10 where 0 is no effect and 10 is complete control) was 0, the “Ducksalad plant response rating” value (duck salad; Rate 62 g/ha, Postemergence section, flood test species, scale of 0 to 10 where 0 is no effect and 10 is complete control) was 0 and the “Plant response rating, Ducksalad” value (duck salad; Rate 250 g/ha, Postemergence (flood test), scale 0 to 10, 0 is no effect, 10 is complete control) was 0. The “Ducksalad plant response rating” value (duck salad; Rate 500 g/ha, listed under Postemergence (flood test species), scale 0 to 10) was 0.
